Data set [1] is described as follows: Single-dose and steady-state serum pharmacokinetics in the murine model. The data set is classed as in vivo, mice. The conditions noted are these: for AUC(0-t) / Cmax: mouse, serum, po, 130 mg/kg; for Cmax: read-out: Cmax. As for the experimental part:
To determine the single-dose and steady-state pharmacokinetic profiles of the compound of formula (I) and LZD in the murine model, a sub-study was nested in the above dose-ranging study using mice treated with the compound of formula (I) at 100 mg/kg once-daily or LZD at 130 mg/kg once- or twice-daily. Three mice per group were sacrificed at 0.5, 1, 2, 4, 8 and 24 hours after the first dose of treatment (D1) and at the aforementioned time points with the addition of a 9 hour time point (i.e., 1 hour after the second daily dose) on Day 24 (D24) of treatment. Mice were anesthetized with chloroform and exsanguinated by cardiac puncture. Whole blood was collected on ice and then centrifuged to obtain serum. Acetonitrile was added to the samples before storage in gasketed screwcap tubes at −20° C. D24 samples were collected and processed in the same manner and stored at −20° C. before being sent together with D1 samples to Pfizer (Groton, Conn.) for determination of drug concentrations. The supernatant was injected (10 μL injection volume) onto the LC (Shimadzu SCL-10A, Kyoto, Japan)-MS/MS (Sciex API 3000, Applied Biosystems Group, Foster City, Calif.) using a Hypersil C18 column (5 μm, 50×2.1 mm, Thermo Electron Corp, Waltham, Mass.) and a step gradient consisting of a mobile phase of A: water with 0.05% 5 mM ammonium formate and B: acetonitrile/water/5 mM ammonium formate (80:20:0.05%). The ionization was electrospray positive ion mode. Bioanalytical data were captured using Analyst (Version 1.4.1, Applied Biosystems Group, Foster City, Calif.). Pharmacokinetic calculations were based on mean serum concentrations and performed using the non-compartmental approach (linear trapezoidal rule for AUC calculation with the aid of Watson 7.2 Bioanalytical LIMS [Thermo Electron Corp, Waltham, Mass.)). […] Concentrations of 0 were used for kinetic calculations for all results below the lower limit of quantitation (5 ng/mL).

The subject of data set [2] is Mycobacterium tuberculosis H37Rv. Briefly: MIC by agar dilution on Middlebrook 7H11 agar. The data set is classed as cell-based. The conditions noted are these: 672 h, 7H11 agar + 10% OADC, 28 days at 37°C, lowest concentration to inhibit at least 99% of bacterial growth. On the technique in general: Agar dilution tests growth on a series of plates holding different concentrations.

Data set [3] has the same test system. The data set is classed as in vivo, mice. As to conditions: mouse, in vivo.
For data set [4] the following is noted: 600-625 mg by mouth twice daily; cited from earlier work.
For data set [5], the system named is Mycobacterium tuberculosis. The conditions noted are these: Mycobacterium tuberculosis, literature; cited from earlier work.

Each structure is given as a SMILES string. ≈ marks a conversion by molar mass, not a printed value. Where “and” joins values, the source holds several entries; their conditions need not be identical. Equal entries are not always repeated. Where two headings read alike, the source gives them in different places.

Turning to `CC(=O)NC[C@H]1CN(c2ccc(N3CCOCC3)c(F)c2)C(=O)O1` [LZD, linezolid], the “Cmax higher than that obtained in humans” value in data set [1] (100 mg/kg dose in the mouse, based on linear kinetics) is listed as “approximately 3 times”. For the same molecule, the “steady state AUC higher than anticipated steady state AUC in humans” value in data set [1] (mouse 130 mg/kg daily vs humans 600-625 mg twice daily) is given as “approximately 50%”. For the same molecule, the AUC(0-t) in data set [1] (Day 1, LZD 130 mg/kg daily oral, read-out: AUC0-24) was determined as 164 µg·h/mL; in data set [1] (Day 24, LZD 130 mg/kg daily oral, read-out: AUC0-24 (steady state AUC)) it was 379 µg·h/mL. In addition, the Cmax (commonly the peak of the concentration-time curve) in data set [1] (Day 1, LZD 130 mg/kg daily oral) worked out at 64.9 µg/mL; in data set [1] (Day 24, LZD 130 mg/kg daily oral), 58.4 µg/mL. Further, the MIC (in general, the smallest concentration in the dilution series that meets the test's criterion for growth inhibition) in data set [2] was 0.25 µg/mL. The “log kill (reduction in mean lung CFU count compared to the baseline value)” value in data set [3] is 1.46 log10. The mean spleen weight in data set [3] was 200 ± 47 mg and 102 ± 5 mg and 190 ± 52 mg. Besides, the “Mean log10 CFU count (± SD) on Day 28” value in data set [3] (25 mg/kg) turned out to be 7.55 ± 0.24 log10 CFU; in data set [3] (50 mg/kg), 7.33 ± 0.11 log10 CFU; in data set [3] (100 mg/kg) it was 6.75 ± 0.14 log10 CFU; in data set [3] (260 mg/kg), 6.03 ± 0.12 log10 CFU. For the same molecule, the “steady state AUC observed in humans” value in data set [4] is 215 to 294 µg·h/mL. The MIC50 (usually the lowest concentration that inhibits either 50% of growth or 50% of the strains tested, depending on the study) in data set [5] is 0.5 µg/mL (≈ 1.48 µM). For the same molecule, the MIC90 (as a rule, an inhibitory concentration at the 90% level, which refers to growth in some studies and to a panel of isolates in others) in data set [5] is 1 µg/mL (≈ 2.96 µM). In data set [5], the MIC range was 0.125 to 1 µg/mL.
